In brackets after ≈: the same amount, converted by molar mass.
Experiments:
A549 = assay: Cytotoxicity against human A549 cells assessed as reduction in cell viability by MTT assay; format: functional, cell-based
HCT-116 = assay: Cytotoxicity against human HCT-116 cells assessed as reduction in cell viability by MTT assay; format: functional, cell-based
MCF7 = assay: Cytotoxicity against human MCF7 cells assessed as reduction in cell viability by MTT assay; format: functional, cell-based
Helicobacter pylori [1] = assay: Antibacterial activity against Helicobacter pyroli 159 assessed as inhibition of bacterial growth incubated for 48 hrs; format: functional
HepG2 = assay: Cytotoxicity against human HepG2 cells assessed as reduction in cell viability by MTT assay; format: functional, cell-based
RAW264.7 = assay: Antiinflammatory activity against mouse RAW264.7 cells assessed as inhibition of LPS induced NO production preincubated for 30 mins followed by LPS addition measured after 48 hrs by griess reagent based assay; format: functional, cell-based
Staphylococcus aureus = assay: Antibacterial activity against Staphylococcus aureus ATCC25923 assessed as inhibition of bacterial growth incubated for 48 hrs; format: functional
Helicobacter pylori [2] = assay: Antibacterial activity against Helicobacter pyroli G27 assessed as inhibition of bacterial growth incubated for 48 hrs; format: functional

| MIC (Helicobacter pylori [1]) | IC50 (RAW264.7) | MIC (Staphylococcus aureus) | MIC (Helicobacter pylori [2]) | SMILES | IC50 (A549) | IC50 (HCT-116) | IC50 (MCF7) | IC50 (HepG2) |
| --- | --- | --- | --- | --- | --- | --- | --- | --- |
| 32 µg/mL (≈ 89.8 µM) |  |  |  | COc1cccc2c1[C@H](O)[C@]13C=C[C@]4(O)CC(C)=CC(=O)[C@@H]4[C@]1(O3)[C@H]2O | > 20 µM | > 20 µM | > 20 µM | > 20 µM |
| 32 µg/mL (≈ 90.3 µM) | 28 µM |  |  | COc1cccc2c1[C@H](O)[C@]13C=C[C@]4(O)CC(C)=CC(=O)[C@@H]4[C@]1(O3)C2=O | > 20 µM | > 20 µM | > 20 µM | > 20 µM |
| 16 µg/mL (≈ 35.4 µM) |  | 16 µg/mL (≈ 35.4 µM) | 16 µg/mL (≈ 35.4 µM) | Cc1cc(O[C@H]2O[C@@H](C)[C@H](O)[C@@H](O)[C@H]2O)c2c3c(ccc2c1)C(=O)c1c(O)cccc1[C@@H]3O | > 20 µM | > 20 µM | > 20 µM | > 20 µM |
